From US7960408B2, “Quinolinyl and benzothiazolyl modulators” (Amgen Inc., priority 2000, dated 2011)
pIC50: −log10 of the molar value.

biological target: T1, PPARγ (Homo sapiens, UniProt P37231); test: PPARγ ligand binding assay utilizing [3H]-BRL 49653 as the radioligand; conditions: concentration required to reduce by 50% the specific binding of [3H]-BRL 49653
T1 construct: made in house
T1 sequence (P37231 1-505): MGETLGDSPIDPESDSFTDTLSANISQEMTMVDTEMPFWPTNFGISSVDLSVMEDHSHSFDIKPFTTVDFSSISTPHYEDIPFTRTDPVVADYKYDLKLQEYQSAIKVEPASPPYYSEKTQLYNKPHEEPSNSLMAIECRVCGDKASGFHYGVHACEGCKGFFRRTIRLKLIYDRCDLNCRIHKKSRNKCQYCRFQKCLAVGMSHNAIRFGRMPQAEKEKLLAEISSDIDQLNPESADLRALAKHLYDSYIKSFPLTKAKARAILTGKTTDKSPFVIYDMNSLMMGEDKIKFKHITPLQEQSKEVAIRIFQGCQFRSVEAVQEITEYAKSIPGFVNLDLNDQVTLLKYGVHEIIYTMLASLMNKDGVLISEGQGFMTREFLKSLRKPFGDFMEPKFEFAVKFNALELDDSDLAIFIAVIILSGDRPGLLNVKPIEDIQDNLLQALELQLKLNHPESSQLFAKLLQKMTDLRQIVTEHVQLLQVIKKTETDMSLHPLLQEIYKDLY
Excerpt: The compounds of the present invention can be evaluated for modulation of the PPARγ receptor using assays such as those described in Jiang, et al., Nature 391:82-86 (1998), Ricote, et al., Nature 391:79-82 (1998) and Lehmann, et al., J. Biol. Chem. 270(12): 12953-12956 (1995). Alternatively, the compounds can be evaluated for their ability to displace radiolabeled BRL 49653 from a PPARγ-GST fusion protein as follows:
PPARγ-GST fusion protein (prepared according to standard procedures), [^3H]—BRL 49653 having 50 Ci/mmol specific activity, Polyfiltronics Unifilter 350 filtration plate and glutathione-Sepharose® beads (from Pharmacia: washed twice with 10× binding buffer in which BSA and DTI can be left out).
Binding buffer (10 mM Tris-HCl, pH 8.0, 50 mM KCI, 10 mM DTT, 0.02% BSA and 0.01% NP-40) is added in 80-μL amounts to the wells of the filtration plate. The test compound is then added in 10 μL of DMSO. The PPARγ-GST fusion protein and radiolabeled BRL compound are premixed in binding buffer containing 10 mM DTT and added in 10-μL amounts to the wells of the plate to provide final concentrations of 1 μg/well of PPARγ-GST fusion protein and 10 nM [^3H]—BRL 49653 compound. The plate is incubated for 15 min. Glutathione-agarose bead is added in 50 μL of binding buffer, and the plate is vigorously shaken for one hour. The plate is washed four times with 200 μL/well of binding buffer (without BSA and DTT). The bottom of the plate is sealed and 200 μL/well of scintillation cocktail is added. The top of the plate is then sealed and the radioactivity is determined.
IC50 values are defined as the concentration of test compounds required to reduce by 50% the specific binding of [^3H]—BRL 49653 and are represented by (+) <30 μM; (++) <10 μM; (+++) <1 μM.

SMILES | pIC50
Cc1cc(S(=O)(=O)Nc2cc(Cl)cc(Oc3nc4c(C)cccc4s3)c2)c(Cl)cc1Cl [Compound 295, 2,4-Dichloro-N-[3-chloro-5-(4-methyl-benzothiazol-2-yloxy)-phenyl]-5-methyl-benzenesulfonamide] | 5.00 to 6.00
COc1cccc2sc(Oc3cc(Cl)cc(NS(=O)(=O)c4ccc(C(F)(F)F)cc4Cl)c3)nc12 [Compound 296, 2-Chloro-N-[3-chloro-5-(4-methoxy-benzothiazol-2-yloxy)-phenyl]-4-trifluoromethyl-benzenesulfonamide] | 5.00 to 6.00
COc1cccc2sc(Oc3cc(Cl)cc(NS(=O)(=O)c4ccc(Cl)cc4Cl)c3)nc12 [Compound 297, 2,4-Dichloro-N-[3-chloro-5-(4-methoxy-benzothiazol-2-yloxy)-phenyl]-benzenesulfonamide] | 5.00 to 6.00
COc1cccc2sc(Oc3cc(Cl)cc(NS(=O)(=O)c4cc(C)c(Cl)cc4Cl)c3)nc12 [Compound 298, 2,4-Dichloro-N-[3-chloro-5-(4-methoxy-benzothiazol-2-yloxy)-phenyl]-5-methyl-benzenesulfonamide] | > 6.00
Cc1ccc2nc(Oc3cc(Cl)cc(NS(=O)(=O)c4ccc(C(F)(F)F)cc4Cl)c3)sc2c1 [Compound 299, 2-Chloro-N-[3-chloro-5-(6-methyl-benzothiazol-2-yloxy)-phenyl]-4-trifluoromethyl-benzenesulfonamide] | > 6.00
Cc1ccc2nc(Oc3cc(Cl)cc(NS(=O)(=O)c4ccc(Cl)cc4Cl)c3)sc2c1 [Compound 300, 2,4-Dichloro-N-[3-chloro-5-(6-methyl-benzothiazol-2-yloxy)-phenyl]-benzenesulfonamide] | > 6.00
Cc1ccc2nc(Oc3cc(Cl)cc(NS(=O)(=O)c4cc(C)c(Cl)cc4Cl)c3)sc2c1 [Compound 301, 2,4-Dichloro-N-[3-chloro-5-(6-methyl-benzothiazol-2-yloxy)-phenyl]-5-methyl-benzenesulfonamide] | > 6.00
O=S(=O)(Nc1cc(Cl)cc(Oc2nc3ccc(Cl)cc3s2)c1)c1ccc(C(F)(F)F)cc1Cl [Compound 302, 2-Chloro-N-[3-chloro-5-(6-chloro-benzothiazol-2-yloxy)-phenyl]-4-trifluoromethyl-benzenesulfonamide] | > 6.00
O=S(=O)(Nc1cc(Cl)cc(Oc2nc3ccc(Cl)cc3s2)c1)c1ccc(Cl)cc1Cl [Compound 303, 2,4-Dichloro-N-[3-chloro-5-(6-chloro-benzothiazol-2-yloxy)-phenyl]-benzenesulfonamide] | > 6.00
O=S(=O)(Nc1cc(Cl)cc(Oc2nc3ccc(F)cc3s2)c1)c1ccc(C(F)(F)F)cc1Cl [Compound 304, 2-Chloro-N-[3-chloro-5-(6-fluoro-benzothiazol-2-yloxy)-phenyl]-4-trifluoromethyl-benzenesulfonamide] | > 6.00
O=S(=O)(Nc1cc(Cl)cc(Oc2nc3ccc(F)cc3s2)c1)c1ccc(Cl)cc1Cl [Compound 305, 2,4-Dichloro-N-[3-chloro-5-(6-fluoro-benzothiazol-2-yloxy)-phenyl]-benzenesulfonamide] | > 6.00
Cc1cc(S(=O)(=O)Nc2cc(Cl)cc(Oc3nc4ccc(F)cc4s3)c2)c(Cl)cc1Cl [Compound 306, 2,4-Dichloro-N-[3-chloro-5-(6-fluoro-benzothiazol-2-yloxy)-phenyl]-5-methyl-benzenesulfonamide] | > 6.00
COc1ccc2nc(Oc3cc(Cl)cc(NS(=O)(=O)c4ccc(C(F)(F)F)cc4Cl)c3)sc2c1 [Compound 307, 2-Chloro-N-[3-chloro-5-(6-methoxy-benzothiazol-2-yloxy)-phenyl]-4-trifluoromethyl-benzenesulfonamide] | 5.00 to 6.00
COc1ccc2nc(Oc3cc(Cl)cc(NS(=O)(=O)c4ccc(Cl)cc4Cl)c3)sc2c1 [Compound 308, 2,4-Dichloro-N-[3-chloro-5-(6-methoxy-benzothiazol-2-yloxy)-phenyl]-benzenesulfonamide] | > 6.00
COc1ccc2nc(Oc3cc(Cl)cc(NS(=O)(=O)c4cc(C)c(Cl)cc4Cl)c3)sc2c1 [Compound 309, 2,4-Dichloro-N-[3-chloro-5-(6-methoxy-benzothiazol-2-yloxy)-phenyl]-5-methyl-benzenesulfonamide] | > 6.00
CCOC(=O)c1ccc2nc(Oc3cc(Cl)cc(NS(=O)(=O)c4ccc(C(F)(F)F)cc4Cl)c3)sc2c1 [Compound 310, 2-[3-Chloro-5-(2-chloro-4-trifluoromethyl-benzenesulfonylamino)-phenoxy]-benzothiazole-6-carboxylic acid ethyl ester] | > 6.00
CCOC(=O)c1ccc2nc(Oc3cc(Cl)cc(NS(=O)(=O)c4ccc(C(F)(F)F)cc4Cl)c3)sc2c1 [Compound 311, 2-[3-Chloro-5-(2-chloro-4-trifluoromethyl-benzenesulfonylamino)-phenoxy]-benzothiazole-6-carboxylic acid ethyl ester] | > 6.00
O=S(=O)(Nc1cc(Oc2nc3cc(Cl)ccc3s2)cc(Oc2nc3cc(Cl)ccc3s2)c1)c1ccc(C(F)(F)F)cc1Cl [Compound 322, N-[3,5-Bis-(5-chloro-benzothiazol-2-yloxy)-phenyl]-2-chloro-4-trifluoromethyl-benzenesulfonamide] | 5.00 to 6.00
O=S(=O)(Nc1cc(Oc2nc3cc(Cl)ccc3s2)cc(Oc2nc3cc(Cl)ccc3s2)c1)c1ccc(Cl)cc1Cl [Compound 323, N-[3,5-Bis-(5-chloro-benzothiazol-2-yloxy)-phenyl]-2,4-dichloro-benzenesulfonamide] | 5.00 to 6.00
Cc1cc(S(=O)(=O)Nc2cc(Oc3nc4cc(Cl)ccc4s3)cc(Oc3nc4cc(Cl)ccc4s3)c2)c(Cl)cc1Cl [Compound 324, N-[3,5-Bis-(5-chloro-benzothiazol-2-yloxy)-phenyl]-2,4-dichloro-5-methyl-benzenesulfonamide] | > 6.00
O=S(=O)(Nc1cc(Cl)cc(Cc2nc3cc(Cl)ccc3s2)c1)c1ccc(C(F)(F)F)cc1Cl [Compound 331, 2-Chloro-N-[3-chloro-5-(5-chloro-benzothiazol-2-ylmethyl)-phenyl]-4-trifluoromethyl-benzenesulfonamide] | > 6.00
O=S(=O)(Nc1cc(Cl)cc(Cc2nc3cc(Cl)ccc3s2)c1)c1ccc(Cl)cc1Cl [Compound 332, 2,4-Dichloro-N-[3-chloro-5-(5-chloro-benzothiazol-2-ylmethyl)-phenyl]-benzenesulfonamide] | > 6.00
Cc1cc(S(=O)(=O)Nc2cc(Cl)cc(Cc3nc4cc(Cl)ccc4s3)c2)c(Cl)cc1Cl [Compound 333, 2,4-Dichloro-N-[3-chloro-5-(5-chloro-benzothiazol-2-ylmethyl)-phenyl]-5-methyl-benzenesulfonamide] | > 6.00
O=S(=O)(Nc1cc(Cl)c(Oc2nc3c(Cl)cccc3s2)c(Cl)c1)c1ccc(C(F)(F)F)cc1Cl [Compound 424, 2-Chloro-N-[3,5-dichloro-4-(4-chloro-benzothiazol-2-yloxy)-phenyl]-4-trifluoromethyl-benzenesulfonamide] | 5.00 to 6.00
O=S(=O)(Nc1cc(Cl)c(Oc2nc3c(Cl)cccc3s2)c(Cl)c1)c1ccc(Cl)cc1Cl [Compound 425, 2,4-Dichloro-N-[3,5-dichloro-4-(4-chloro-benzothiazol-2-yloxy)-phenyl]-benzenesulfonamide] | 5.00 to 6.00
Cc1cc(S(=O)(=O)Nc2cc(Cl)c(Oc3nc4c(Cl)cccc4s3)c(Cl)c2)c(Cl)cc1Cl [Compound 426, 2,4-Dichloro-N-[3,5-dichloro-4-(4-chloro-benzothiazol-2-yloxy)-phenyl]-5-methyl-benzenesulfonamide] | > 6.00
